The test system of data set [1] is ischemia-induced neurological symptoms in the Mongolian Gerbil. The data set is described as follows: Improvement of ischemia-induced neurological symptoms in the Mongolian gerbil caused by ligation of the bilateral common carotid arteries for 30 minutes. The class given is in vivo. The conditions noted are these: 100 mg/kg i.p. upon recommencement of blood flow. On the procedure:
The test animals employed were male adult Mongolian gerbils (16-20 weeks old). These were used in groups each consisting of from 10 to 20 animals. The bilateral common carotid arteries were occluded for 30 minutes under anesthesia with pentobarbital (30 mg/kg, intraperitoneally) and halothane (it was introduced to a mixture of 95% oxygen and 5% carbon dioxide at a concentration of 1.5% by volume) and then the occlusion was released to allow the blood to flow. The animal was then placed in a supine position, and we measured (1) the time taken from recommencement of blood flow until convulsions occurred and (2) the survival time. Observations to determine the onset time of convulsions and the survival time were continued for 6 and 7 hours, respectively, after recommencement of blood flow. […] The compound to be tested was suspended in a 0.5% w/v carboxymethyl cellulose (CMC) aqueous solution and administered intraperitoneally upon recommencement of blood flow in the common carotid arteries. On the other hand, a 0.5% CMC solution containing no test compound was administered likewise to a control group. Statistical analysis was carried out using the Mann-Whitney U-test between the control group and the test group.

In data set [2] the test system is ischemia-induced neurological symptoms in SHR SP. The data set is described as follows: Improvement in ischemia-induced neurological symptoms in Spontaneously Hypertensive Rats Stroke Prone (SHR SP) caused by ligation of the bilateral common carotid arteries. The data set is classed as in vivo, rat (SHR SP). The protocol:
The test animals employed were male adult SHR SPs (13 or 15 weeks old). They were used in groups each consisting of about 10 animals. Under halothane anesthesia, both common carotid arteries of each animal were ligated to prepare a brain ischemia model. The halothane anesthesia was stopped immediately after the ligation, and then the time taken to recover the righting reflex, the onset time of convulsions and the survival time were determined. The test solution was prepared in the same manner as described in Experiment 1 and was administered to the animal intraperitoneally 30 minutes before the ligation. A 0.5% CMC solution was administered to the control group in the same manner. The statistical analysis was carried out in a similar manner to that in Experiment 1. The statistical analysis of the survival rate was carried out by the X^2 test.

The test system of data set [3] is decerebrate rigidity in rats. The data set is described as follows: Suppression of decerebrate rigidity in rats. The data set is classed as in vivo, rat. An excerpt: The suppression of decerebrate rigidity in laboratory animals, such as rats, is a well known model for control of human spasticity and/or rigidity.
In the test method, a rat was anesthetized with halothane and fixed on a stereotaxic apparatus (SR-5, Narishige). In accordance with the brain atlas by Pellegrino et al., [L. J. Pellegrino, A. S. Pellegrino & A. J. Cushman: A Stereotaxic Atlas of the Rat Brain, Plenum Press, New York and London (1967)], an electrode 0.7 mm in diameter, which was insulated except for 1 mm at the tip, was inserted bilaterally into the midbrain reticular formation (AP: 0, L: ±1.5, H: -3.0). A clip serving as the reference electrode was fixed on the temporal muscle. Through these electrodes, a high frequency electric current (100 KHz, 10 to 20 mA) was applied from a lesion generator (Glass Co., LM4A) for 2 to 3 minutes to cauterize electrically this brain region.
The rat was then immediately set free from the stereotaxic apparatus. A polyethylene cannula was inserted into the duodenum and fixed with an acrylic resin (Aron Alfa, Sankyo Co., Ltd.). After completion of these operations, halothane anesthesia was immediately discontinued.
After 1.5 hours, when the animal awoke from the anesthesia, the rat was fixed on an apparatus devised in our laboratory for a hind leg fixation. Both hind legs were fixed at the anterior part of the ankle joints. Both hindlimb paws were then pushed in 4 mm for 6 seconds in every minute. The resulting repulsive tension was drawn on a polygraph through a strain gauge.
The test compounds were suspended in a 0.5% w/v CMC (carboxymethyl cellulose) aqueous solution and were administered orally (p.o.) or intraperitoneally (i.p.).
The results are summarized in the following Table 7, where the compounds of the present invention are identified by the number of the foregoing Example in which each was prepared, Compound X is the known compound eperisone hydrochloride, and Compound Y is the known compound afloqualone.

Data set [4] relates to decerebrate rigidity (cats). The experiment in a line: Suppression of decerebrate rigidity (cats). The data set is classed as in vivo, cat. From the text: Adult cats each weight 3.0 to 4.5 kg were used. Under ether anesthesia, the trachea was cannulated and the common carotid arteries were ligated at both sides. The cat was decerebrated by suction at the precollicular level. Ether anesthesia was then immediately discontinued. A pair of needle electrodes was inserted into the neck muscle in order to pick up any EMG muscular discharges. The EMG discharge was amplified and recorded on a pen-writing recorder, along with an integration of the EMG discharge. Recording was started at least 2 hours after withdrawal of anesthesia. Blood pressure induced from the femoral artery, as well as body temperature and heart beat, were recorded and monitored throughout the experiment.
After stable EMG discharges were obtained, the test compounds suspended in 0.5% CMC solution were administered into the duodenum through a previously inserted cannula. The effect of the test compound was expressed as the ratio of the integrated EMG discharge after administration relative to the value before administration.

A further data set deals with spinal reflex in cats. The experiment in a line: Effect on spinal reflex in cats. The class given is in vivo, cat. The protocol: Adult cats weighing 3.0 to 4.5 kg each were used. After induction of anesthesia with ether, the animal was anesthetized by intravenous injection of 50 mg/kg of a-chloralose. After the trachea was cannulated, the animal was fixed on a stereotaxic apparatus, and the lumbosacral spinal cord was exposed by laminectomy from L3 to S1. The ventral roots of the right side were cut from L6 to S1 as distal as possible and the cut ends were ligated with cotton thread previously immersed in Ringer's solution. The exposed spinal cord was covered with warmed mineral oil and maintained at 37° C. The ventral root, either L7 or S1, was fixed on a pair of platinum wire electrodes. A pair of collar-type electrodes was implanted on the ipsilateral tibial nerve and the saphenous nerve, for stimulation. After completion of all these operations, the cat was immobilized with pancronium bromide (0.5 mg/kg, i.v.) and maintained by artificial respiration (40/minute). Recording was started at least 2 hours after withdrawal of ether anesthesia. A single square pulse (0.01 to 0.1 msecond pulse width, supramaximal intensity) was applied to the nerve at a frequency of 0.3 Hz from an electronic stimulator. […] In a similar manner to Experiment 2, the blood pressure, heart beat and body temperature of the animal were recorded and monitored. Compounds to be tested were also administered in a similar manner.

For the next data set, the system named is thiopental anesthesia. The data set is described as follows: Potentiation of thiopental anesthesia (mice). The class given is in vivo, mouse (ddY strain). The protocol:
In the test method, male adult mice of ddY strain each weighing 20 to 30 g were used as divided groups each made up of 5 to 7 mice. Test compounds suspended in 0.5% CMC solution were orally administered. After one hour, thiopental (30 mg/kg) was injected into the tail vein, and the time required for the mouse to recover the righting reflex was measured.

Data set [5] concerns survival time under hypoxic conditions. The data set is described as follows: Effect on survival time under hypoxic conditions. The conditions noted are these: 4% oxygen, 96% nitrogen. The class given is in vivo, mouse (ddY strain). An excerpt:
The test animals employed were male adult mice (5 weeks old and about 30 g body weight) of the ddY strain. The animals were employed in groups, each containing from 7 to 17 animals. Each animal was given intraperitoneally a test compound in suspension (as in the preceding Experiments). Thirty (30) minutes after this administration, 2 or 3 animals were placed in a 1.5 liter gas chamber made of acrylate resin, and a mixture of 4% by volume oxygen and 96% nitrogen was supplied at the rate of 10 liters/minute. The time of death of the animal was measured (determined by the cessation of respiration).

Where [6] appears, read: 30 mg/kg i.p. 30 minutes before ligation.
Where [7] appears, read: 100 mg/kg i.p. 30 minutes before ligation.
The mark [8] stands for this setting: 100 mg/kg, administered as in Experiment 2.
The mark [9] stands for this setting: 100 mg/kg, after administration.

Counter-ions that a name gives are not always drawn. Like-named read-outs stand apart in the source and are kept apart here.

The source of these data is patent US5321037A, “Isoxazole derivatives for use as cerebro-active drugs and central muscle relaxants” (Sankyo Company, Limited, priority 1986, dated 1994).

Turning to `O=c1c(Cl)c(-c2ccccc2)on1CC(O)CN1CCOCC1` (centres unmarked) [2a hydrochloride], in data set [1], the “Onset time of convulsions” value was determined as 289.4 min and the Survival time came to 375.7 min. Further, in data set [2] (setting [6]), the “Onset time of convulsions” value was determined as 99.8 ± 27.8 min, the “Recovery time of righting reflex” value worked out at 8.0 ± 1.7 min and the Survival time came to 232.1 ± 35.8 min. In addition, in data set [2] (setting [7]), the “Onset time of convulsions” value is 103.5 ± 16.2 min, the “Recovery time of righting reflex” value was 7.6 ± 1.7 min and the Survival time amounted to 233.0 ± 28.7 min.

`O=c1c(Cl)c(-c2ccccc2)on1CC(O)CN1CCOCC1` (centres unmarked) [Compound 2a]: the “Duration of the effect” value is more than 90 min in data set [3] (30 mg/kg p.o.), more than 120 min in data set [3] (50 mg/kg i.p.), more than 90 min in data set [3] (50 mg/kg p.o.) and more than 90 min in data set [3] (100 mg/kg p.o.). Besides, the “Onset of the effect” value is 5 min in data set [3] (30 mg/kg p.o.), 10 min in data set [3] (50 mg/kg i.p.), 5 min in data set [3] (50 mg/kg p.o.) and 5 min in data set [3] (100 mg/kg p.o.). The inhibition in vivo at 50 mg/kg came to 50% in data set [3] (Rattus norvegicus, ip, 50 mg/kg i.p., read-out: Maximum inhibition) and 90% in data set [3] (Rattus norvegicus, po, 50 mg/kg p.o., read-out: Maximum inhibition). Besides, the inhibition in vivo at 30 mg/kg in data set [3] (Rattus norvegicus, po, 30 mg/kg p.o., read-out: Maximum inhibition) was determined as 55%. Moreover, in data set [3] (Rattus norvegicus, po, 100 mg/kg p.o., read-out: Maximum inhibition), the inhibition in vivo at 100 mg/kg is 100%. In addition, the “Inhibition of decerebrate rigidity” value was “About 30%” in data set [4] (100 mg/kg intraduodenal, 5 minutes after administration) and “about 65%” in data set [4] (100 mg/kg intraduodenal, 1 hour after administration). Further, the “Duration of inhibitory effects” value in data set [4] (100 mg/kg intraduodenal, throughout the observation period) is not below 2 h. Besides, in data set [4] (compared with eperisone hydrochloride), the “Side effects and duration of action compared with eperisone hydrochloride” value is “weaker in side effects and of longer action than eperisone hydrochloride”. In the data set on spinal reflex in cats (100 mg/kg), the “Duration of the effect on spinal reflexes” value was “about 2 hours”. The Monosynaptic reflex result in the data set on spinal reflex in cats (setting [8]) was “little affected”. Moreover, the Polysynaptic reflex result in the data set with spinal reflex in cats (setting [8]) is given as “remarkably inhibited”. Moreover, the Spino-bulbo-spinal reflex result in the data set on spinal reflex in cats (setting [8]) was “remarkably inhibited”. Further, the “Onset of the effect on spinal reflexes” value in the data set with spinal reflex in cats (setting [9]) is 5 min. In addition, the “Time of maximum effect on spinal reflexes” value with spinal reflex in cats (setting [9]) is 30 min. In addition, the “Mechanism shown by spinal reflexes” value with spinal reflex in cats (in vivo) was “interneuron blockers”. For the same compound, in the data set with thiopental anesthesia (100 mg/kg p.o., thiopental 30 mg/kg after one hour), the Anesthesia time stood at 329.1 ± 81.2 s. Besides, the “Drowsiness (the adverse effect), implied” value with thiopental anesthesia (compared with afloqualone) is reported as “induce drowsiness (the adverse effect) less than afloqualone”. Besides, in the data set on thiopental anesthesia (in comparison with eperisone hydrochloride), the “Prolongation of the duration of thiopental-induced anesthesia, in words” value is listed as “did not significantly prolong the duration of thiopental-induced anesthesia”. For the same compound, the “Onset time of convulsions and survival time, in words” value in data set [2] (100 mg/kg) is “prolonged onset time of convulsions, survival time significantly”.

Take `Cl.OC(COc1cc(-c2ccccc2)on1)CN1CCOCC1` (centres unmarked) [Example 20, 3-(2-Hydroxy-3-morpholinopropoxy)-5-phenylisoxazole hydrochloride]: the “Onset time of convulsions and survival time, in words” value is listed as “prolonged onset time of convulsions, survival time significantly” in data set [2] (30 mg/kg) and “prolonged onset time of convulsions, survival time significantly” in data set [2] (100 mg/kg). Also, the results for the “Onset time of convulsions” value in data set [2] (setting [6]) and in data set [2] (setting [7]) were 71.9 ± 9.3 min and 176.7 ± 25.8 min, respectively. Further, the results for the “Recovery time of righting reflex” value in data set [2] (setting [6]) and in data set [2] (setting [7]) were 6.5 ± 0.6 min and 6.9 ± 0.9 min, respectively. In addition, the Survival rate stood at 36.4% in data set [2] (setting [6]) and 63.6% in data set [2] (setting [7]). The Survival time worked out at 295.9 ± 32.3 min in data set [2] (setting [6]), 371.9 ± 26.3 min in data set [2] (setting [7]), 124.6 ± 15.4 s in data set [5] (30 mg/kg i.p.) and 349.5 ± 59.1 s in data set [5] (100 mg/kg i.p.).
